Where two headings read alike, the source gives them in different places.
Assays:
[1] = assay type: physicochemical; settings: for Tht category (> 1.5 to blank = +): category 1/0; for ThT Cat. / ThT-Fluorescence (categorical): ThT-active if fluorescence at least twice the control
Outline: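 Fibrils (1 mg/mL solution) were mixed with 50 µM ThT in PBS for 15 min at RT, and fluorescence was read at λex 440/λem 488 nm against a PBS blank, as a triplicate mean ± SD. Zeta potential came from electrophoretic mobility (Smoluchowski) after 1 d aggregation at 1 mg/mL in PBS pH 7.4, diluted into 1 mM KCl.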

[2] = system: HIV-1 infection of TZM-bl cells; test: HIV-1 infectivity enhancement assay, β-galactosidase luminescence; assay type: cell-based
[3] = Zeta-potential measurement; assay type: physicochemical; settings: for Zeta-pot. / mV: zeta potential of peptide, Fig S15 source data; for Zeta pot. / mV: 1 mg/mL in PBS pH 7.4 from 10 mg/mL DMSO stock, 1 d RT, 60 µL diluted in 600 µL 1 mM KCl, Zetasizer Nano ZS, Smoluchowski, mean of triplicate
Outline: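 Surface charge of aggregated peptides: 1 mg/mL solutions in PBS (pH 7.4) incubated 1 d at RT, diluted into 1 mM KCl just before reading. Electrophoretic mobility converted to zeta potential by the Smoluchowski formula; triplicate measurements from two separate experiments averaged.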

[4] = ThT fluorescence relative to blank, blank = 42.1851851851852
[5] = Feb2021; figures match the 1.3 µM column
[6] = Feb2021; infectivity relative to virus only
[7] = Feb2021; log10 of infectivity relative to EF-C
[8] = Feb2021; n-fold infectivity relative to EF-C
[9] = infectivity class (low / medium / high) of each library peptide; main list in c1-c6, same classes repeated in sub-lists of sequences containing the hydrophobicity/charge patterns P+,H0,P+,H0,P0,H0,P0; P+,H0,P0,H0,P0,H0,P0; P+,H0,P0,H0
[10] = log10 of HIV-1 infection of TZM-bl cells relative to EF-C; Fig S15 source data; asymmetric std dev errors
[11] = log10 of infection relative to EF-C, Figure 7B
[12] = n-fold infection vs virus only, relative to that of EF-C, 1.3 µM peptide
[13] = HIV-1 infection relative to EF-C; Fig 23 plot, panels A and B; mean of 3 values
[14] = HIV-1 infection relative to EF-C; Fig 23 plot, single data point, replicate 1
[15] = HIV-1 infection relative to EF-C; Fig 23 plot, single data point, replicate 2
[16] = HIV-1 infection relative to EF-C; Fig 23 plot, single data point, replicate 3
[17] = log10 of infection relative to EF-C, Figure 6C
[18] = ThT fluorescence relative to blank (42.1851851851852 a.u.)
[19] = relative to blank 42.1851851851852 a.u.
[20] = Feb2021 run; infectivity n-fold relative to virus alone
[21] = Feb2021 run; log10 of infectivity relative to EF-C
[22] = Feb2021 run; n-fold infectivity relative to EF-C
[23] = infectivity enhancement relative to EF-C (=1); Feb2021 run
[24] = infectivity n-fold relative to virus only; Feb2021 run
[25] = log10 of infectivity relative to EF-C; Feb2021 run

| Substance | Tht rel to blank (42.1851851851852) [1, 4] | Tht category (> 1.5 to blank = +) [1] | Absolute Infectivity / RLU /s (Feb2021) [2, 5] [RLU /s] | n-fold to virus (Feb2021) [2, 6] | Log10 of Rel to EFC (Feb2021) [2, 7] | Rel-to EFC (Feb-2021) [2, 8] | infectivity [2, 9] | Log10 Inf. rel. to EF-C [2, 10] | Zeta category ( +1 = if > 4 mV;-1 = if < -4 mV; 0 = -4mV to 4 mV) [3] | Zeta-pot. / mV [3] [mV] | ThT Cat. / ThT-Fluorescence (categorical) [1] | Log10 Infection Rel EF-C [2, 11] | Inf. rel. EF-C [2, 12] | Zeta pot. / mV [3] [mV] | Zeta-Potential / mV ([3]; mean, Figure 7B) [mV] | Tht rel to blank (42.1851851851852) [1, 19] | n-fold to virus (Feb2021) [2, 20] | Log10 of Rel to EFC (Feb2021) [2, 21] | Rel-to EFC (Feb-2021) [2, 22] | further results |
| --- | --- | --- | --- | --- | --- | --- | --- | --- | --- | --- | --- | --- | --- | --- | --- | --- | --- | --- | --- | --- |
| HLHLPLL [CN14] | 1.069 | 0 (ThT-inactive (N-Fold <2)) | 133.3 | 0.4211 | -1.999 | 0.01002 | low | -1.9991 | -1 (-1 = if < -4 mV) | -9.053 |  |  |  |  |  |  |  |  |  | Zeta Pot. / mV [3]: -9.053 mV |
| IFQINS [reference compound] |  |  |  |  |  |  |  |  |  |  | 1 (ThT. Cat is 1, if Rel. ThT >2) | -1.21 | 0.06 | -11.0 | -10.98 |  |  |  |  |  |
| IIIK [reference compound] |  |  |  |  |  |  |  |  |  |  | 0 (ThT-inactive (N-Fold <2)) | -1.29 | 0.05 | -3.8 | -3.82 |  |  |  |  |  |
| IIIQGK [reference compound] |  |  |  |  |  |  |  |  |  |  | 0 (ThT-inactive (N-Fold <2)) | -1.21 | 0.06 | -7.6 | -7.56 |  |  |  |  |  |
| IKFLSVN [reference compound] |  |  |  |  |  |  |  |  |  |  | 0 (ThT-inactive (N-Fold <2)) | -1.16 | 0.07 | 5.9 | 5.9 |  |  |  |  | infectivity enhancement, in words ([2]; fibril-forming peptides with positive zeta-potential, low count rate): do not enhance infectivity |
| KAKLTCT |  |  |  |  |  |  |  |  |  |  | 0 (ThT-inactive (N-Fold <2)) |  | 0.07 | -2.2992 |  |  |  |  |  | Inf. rel. EF-C [2, 13]: 0.0665; Inf. rel. EF-C [2, 14]: 0.09602; Inf. rel. EF-C [2, 15]: 0.05821; Inf. rel. EF-C [2, 16]: 0.04527; Log10 Infection Rel EF-C [2, 17]: -1.177; Zeta-Potential / mV ([3]; mean, Figure 6C): -2.2992 mV |
| KAKQAANMWQ [JG6] | 1.208 | 0 (ThT-inactive (N-Fold <2)) | 343.3 | 1.2875 | -1.514 | 0.03064 | low | -1.514 | -1 (-1 = if < -4 mV) | -12.9 |  |  |  |  |  |  |  |  |  | Zeta Pot. / mV [3]: -12.9 mV |
| KAQCTLP |  |  |  |  |  |  |  |  |  |  | 0 (ThT-inactive (N-Fold <2)) |  | 0.07 | -8.503 |  |  |  |  |  | Inf. rel. EF-C [2, 13]: 0.07031; Inf. rel. EF-C [2, 14]: 0.07607; Inf. rel. EF-C [2, 15]: 0.09243; Inf. rel. EF-C [2, 16]: 0.04244; Log10 Infection Rel EF-C [2, 17]: -1.153; Zeta-Potential / mV ([3]; mean, Figure 6C): -8.503 mV |
| KFKFQFF [TG6] | 2.58 | 1 (ThT. Cat is 1, if Rel. ThT >2) | 2850 | 5.12 | -0.9142 | 0.1218 | medium | -0.9142 | 0 (0 = -4mV to 4 mV) | 6.903 |  |  |  |  |  | 2.58 | 5.12 | -0.9142 | 0.1218 | Tht rel to blank (42.1851851851852) [1, 18]: 2.58; Rel-to EFC (Feb-2021) [2, 23]: 0.1218; n-fold to virus (Feb2021) [2, 24]: 5.12; Log10 of Rel to EFC (Feb2021) [2, 25]: -0.9142 |
| KFKFQFFF [TG12] | 2.58 | 1 (ThT. Cat is 1, if Rel. ThT >2) | 8657 | 16.97 | -0.3937 | 0.404 | medium | -0.3936 | 1 (+1 = if > 4 mV) | 13.27 |  |  |  |  |  | 2.58 | 16.97 | -0.3937 | 0.404 | Tht rel to blank (42.1851851851852) [1, 18]: 2.58; Rel-to EFC (Feb-2021) [2, 23]: 0.404; n-fold to virus (Feb2021) [2, 24]: 16.97; Log10 of Rel to EFC (Feb2021) [2, 25]: -0.3937; Zeta Pot. / mV [3]: 13.27 mV; Zeta Pot. / mV ([3]; mean, Std in separate column): 13.27 mV |
| KFKFQFN [BL7] |  | 0 (ThT-inactive (N-Fold <2)) |  |  |  |  | low | -1.744 | 1 (+1 = if > 4 mV) | 12.7 |  |  |  |  |  | 1.056 | 0.757 | -1.744 | 0.01802 | Zeta Pot. / mV ([3]; mean, Std in separate column): 12.7 mV |
| KFKFQFNMW [BL5 / KB13] |  | 0 (ThT-inactive (N-Fold <2)) |  |  |  |  | medium | -0.3503 | 1 (+1 = if > 4 mV) | 22.6 |  |  |  |  |  | 1.342 | 18.76 | -0.3503 | 0.4464 | Zeta Pot. / mV ([3]; mean, Std in separate column): 22.6 mV |

Source: article PMC10447463, “Data-mining unveils structure–property–activity correlation of viral infectivity enhancing self-assembling peptides” (Nature Communications, 2023)
